pIC50: −log10 of the molar value.
Tested on: panel of GPCRs
Experiment: GPCR selectivity panel
Format: cell-based
Experimental: A homogeneous Time-Resolved Fluorescence (HTRF) assay (Perkin Elmer, Dynamic2 kit #) was used to assess receptor basal and inverse agonist activity at human GPR61, GPR62, and GPR101. For routine inverse agonist screening frozen CHO TREx human GPR61, GPR62 and GPR101 cells were used. Cells were thawed, resuspended in complete assay media (DMEM F-12, 10% HI FBS, 100 μg/mL Normocin, 700 μg/mL Hygromycin B and 15 μg/mL Blasticidin) containing 1ug/ml doxycycline, plated in white 384 well plates (Corning, 3570) at a density of 750 cells/well (25 μl/ well) and cultured at 37 °C in an incubator overnight. For studies assessing basal and inverse agonist activity at human GPR61 mutants, CHO-K1 cells were transiently transfected using Fugene6, plated in white 384 well plates (7500 cells/well) and grown overnight at 37 °C, as described for receptor expression studies. […] Data were analyzed using the ratio of fluorescence intensity at 620 and 665 nm for each well, extrapolated from the cAMP standard curve to express data as nM cAMP for each well. […]
7 recepto r activities wer e measured using FL IPR® Calcium Assays. […]
11 measured using a cal cium specific dye. […]
18 change in fluorescence from baseline over a 60 second period (Excitation 470- 495 nm; Emission […]
20 Tetra® instrument to evaluate antagonist activity, with the change in fluorescence from baseline
21 being measured over a 60 second period. […]

In the case of `CCOc1cc(C)nc(N(CCOC)S(=O)(=O)c2ccc(NCc3c(F)cncc3F)nc2OC)n1` [Compound 1], the pIC50 (panel of GPCRs, read-out: off-target IC50 values) was less than 5.00 and the “selectivity for GPR61” value (panel of common off-target GPCRs and related receptors GPR62 and GPR101) was “selective”.

From PMC10517971, “An inverse agonist of orphan receptor GPR61 acts by a G protein-competitive allosteric mechanism” (Nature Communications, 2023)
